The text below walks through data of ChEMBL document CHEMBL1255319, “Predictive values of the human immunodeficiency virus phenotype and genotype and of amprenavir and lopinavir inhibitory quotients in heavily pretreated patients on a ritonavir-boosted dual-protease-inhibitor regimen” (Antimicrob Agents Chemother, 2008).

For orientation: IC90 means the concentration needed for an effect of 90%.

Values after ≈ are worked out from the molar mass of the structure shown.

The nature of data set [1]: Inhibitory quotient, ratio of Cmin to IC90 for HIV1 infected in patient in presence of human serum at 600 mg, BID.
The species named for the next data set is Homo sapiens. As to the kind of experiment: fCmin in HIV1-infected patient at 600 mg, BID measured on week 2 by HPLC. The following applies: in vivo.
Data set [2] has as its system Human immunodeficiency virus. Kind of data set: Antiviral activity in HIV infected in patient having Cmin-corrected GIQ value < 75 assessed as viral copies. Type of data set: functional.
Data set [3] deals with Human immunodeficiency virus 1. As to the kind of experiment: Antiviral activity against HIV1 infected in human in presence of human serum. Type of data set: functional.
The subject of data set [4] is Human immunodeficiency virus. Kind of data set: Antiviral activity in HIV infected in patient having Cmin-corrected GIQ value > 75 assessed as viral copies. Type of data set: functional.
Data set [5] can be described thus: Inhibitory quotient, ratio of fCmin to IC90 for HIV1 infected in patient at 600 mg, BID.
Data set [6] deals with Human immunodeficiency virus 1. As to the kind of experiment: Antiviral activity against HIV1 infected in human. Type of data set: functional.

Take `CC(C)CN(C[C@@H](O)[C@H](Cc1ccccc1)NC(=O)O[C@H]1CCOC1)S(=O)(=O)c1ccc(N)cc1` [AMPRENAVIR]: the figures for the Ratio in data set [1] and in data set [5] were 3.6 and 2.5, respectively. In addition, in the data set listed under Homo sapiens, the fCmin was 177 ng/mL. Besides, the log10cfu in data set [2] is 0.19 log10 copies/ml; in data set [4] it was 1.23 log10 copies/ml. The IC90 in data set [3] is 0.453 µg/mL; in data set [6] it was 0.0578 µg/mL (≈ 0.114 µM).
